Our source for the GI50 and TGI values is PubChem BioAssay (NCI).

Values joined by “and” are separate entries in the source; they are usually repeats but may differ in a detail not shown here. Equal entries are not always repeated.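 A five-concentration, 48-hour dose response in 96-well plates underlies each endpoint, interpolated linearly between surrounding concentrations. At the GI50, growth is halved. TGI is the concentration that stops growth completely.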

Some test systems named below: OVCAR-8 ovarian; OVCAR-5 ovarian; IGROV1 ovarian; UO-31 renal; BT-549 breast; OVCAR-4 ovarian; EKVX NSCLC; RXF 393 renal; UACC-257 melanoma; MDA-MB-231 breast.
Holding throughout (assay): growth of human tumour cells (NCI), 48 h

As for `CN1CCN(CCCN2c3ccccc3Sc3ccc(C(F)(F)F)cc32)CC1`, the GI50 with OVCAR-8 ovarian is 1700 nM; with OVCAR-5 ovarian, 1990 nM; with IGROV1 ovarian, 2190 nM and 3770 nM and 9900 nM; in the assay with UO-31 renal, 2310 nM; in the assay with BT-549 breast, 3710 nM; in the assay with OVCAR-4 ovarian, 3220 nM. Moreover, the GI50 is 2340 nM with EKVX NSCLC; 1780 nM and 10000 nM and 4080 nM with RXF 393 renal; 1750 nM and 6110 nM and 1700 nM in the assay on MDA-MB-231 breast. Further, the TGI is 3.36 µM and 33.4 µM and 30.5 µM in the assay on OVCAR-8 ovarian; 4.28 µM and 24.9 µM and 23.2 µM with OVCAR-5 ovarian; 4.98 µM and 11.9 µM and 23 µM with IGROV1 ovarian; 12 µM and 19.3 µM and 17.6 µM in the assay with UO-31 renal; 14.5 µM and 29.3 µM and 28.1 µM in the assay with BT-549 breast; 12.5 µM and 21.6 µM and 26.6 µM in the assay with OVCAR-4 ovarian. Besides, the TGI in the assay with EKVX NSCLC is 10.8 µM and 27.9 µM and 28.3 µM; with RXF 393 renal it was 4.62 µM and 23.1 µM and 15.5 µM; in the assay with UACC-257 melanoma, 3.73 µM and 3.75 µM and 6.55 µM; in the assay with MDA-MB-231 breast it was 3.87 µM and 19.9 µM and 5.08 µM.

As for `NCC(=O)NC(CO)C(=O)O` (configuration not stated), the TGI with OVCAR-8 ovarian, in the assay with OVCAR-5 ovarian, in the assay with IGROV1 ovarian, in the assay on UO-31 renal, with BT-549 breast and in the assay with OVCAR-4 ovarian was more than 100 µM each time. In addition, the TGI in the assay on EKVX NSCLC, in the assay with RXF 393 renal, with UACC-257 melanoma and in the assay on MDA-MB-231 breast was more than 100 µM throughout.

Take `O=C(c1ccncc1)N1CCN(C2=NS(=O)(=O)c3ccccc3N2c2ccccc2)CC1`: the GI50 with OVCAR-8 ovarian is 27700 nM; in the assay on OVCAR-5 ovarian, 33400 nM; in the assay on IGROV1 ovarian, 25100 nM; with UO-31 renal, 36400 nM; in the assay with BT-549 breast, 17100 nM; in the assay on OVCAR-4 ovarian, 30600 nM. The GI50 was 35000 nM in the assay on EKVX NSCLC, 18500 nM in the assay on RXF 393 renal, 21.7 µM in the assay with UACC-257 melanoma and 30700 nM in the assay with MDA-MB-231 breast. Moreover, the TGI is more than 100 µM in the assay on OVCAR-8 ovarian; more than 100 µM with OVCAR-5 ovarian; more than 100 µM in the assay on IGROV1 ovarian; more than 100 µM in the assay on UO-31 renal; 52.1 µM in the assay with BT-549 breast; more than 100 µM in the assay on OVCAR-4 ovarian. Further, the TGI in the assay on EKVX NSCLC is more than 100 µM; in the assay on RXF 393 renal it was 40.5 µM; with UACC-257 melanoma, 63.8 µM; with MDA-MB-231 breast it was 75.2 µM.

Turning to `CNC(=O)c1c(NC(=O)c2ccc(C(C)C)cc2)sc2c1CCC(=O)C2`, the GI50 was 338 nM in the assay with OVCAR-8 ovarian; 496 nM in the assay on OVCAR-5 ovarian; 542 nM with IGROV1 ovarian; 260 nM in the assay with UO-31 renal; 505 nM with BT-549 breast; 320 nM in the assay on OVCAR-4 ovarian. Moreover, the GI50 was 719 nM with EKVX NSCLC, 289 nM in the assay with RXF 393 renal, 2.05 µM with UACC-257 melanoma and 394 nM with MDA-MB-231 breast. Moreover, the TGI was 2.38 µM in the assay on OVCAR-8 ovarian; 1.93 µM in the assay on OVCAR-5 ovarian; 2.4 µM with IGROV1 ovarian; 1.1 µM in the assay on UO-31 renal; 2.71 µM in the assay with BT-549 breast; 1.16 µM in the assay on OVCAR-4 ovarian. Also, the TGI with EKVX NSCLC was 2.74 µM; in the assay with RXF 393 renal, 1.38 µM; in the assay on UACC-257 melanoma, 6.35 µM; in the assay with MDA-MB-231 breast it was 1.71 µM.

Take `C/C=C1\C[C@@H]2C(OC)Nc3cc(O)c(OC)cc3C(=O)N2C1` (some centres not stated): the GI50 in the assay on OVCAR-8 ovarian was 8.04 nM; in the assay with OVCAR-5 ovarian it was 7.75 nM; with IGROV1 ovarian it was 15.9 nM; in the assay on UO-31 renal, 2.22 nM; in the assay with OVCAR-4 ovarian it was 3.55 nM; in the assay with EKVX NSCLC, 17.6 nM. The GI50 in the assay with RXF 393 renal was 1.01 nM; with MDA-MB-231 breast it was 13.1 nM. Besides, the TGI with OVCAR-8 ovarian was 0.61 µM and 1.03 µM; in the assay on OVCAR-5 ovarian it was 0.0632 µM and 0.306 µM; in the assay with IGROV1 ovarian, 0.906 µM and 2.84 µM; in the assay with BT-549 breast, 0.0151 µM and 0.0269 µM; with OVCAR-4 ovarian, < 0.0172 µM and 0.0101 µM; in the assay with EKVX NSCLC it was 0.105 µM and 0.0346 µM. Besides, the TGI in the assay on RXF 393 renal is 0.00219 µM; in the assay with UACC-257 melanoma, 0.0413 µM and < 0.0126 µM; in the assay on MDA-MB-231 breast, 0.0626 µM and 0.375 µM.

In the case of `COc1ccc(CCN2COc3ccc4ccc(=O)oc4c3C2)cc1OC`, the TGI in the assay with OVCAR-8 ovarian, with OVCAR-5 ovarian, with IGROV1 ovarian, with UO-31 renal, in the assay on BT-549 breast and in the assay on OVCAR-4 ovarian was more than 100 µM in each case. Besides, the TGI with EKVX NSCLC, in the assay with RXF 393 renal, in the assay with UACC-257 melanoma and in the assay on MDA-MB-231 breast was more than 100 µM in each case.

In the case of `Cc1nc2sc(C(=O)Nc3cccc(Cl)c3C)c(N)c2cc1C(=O)c1ccccc1`, the GI50 in the assay on OVCAR-8 ovarian is 403 nM; in the assay with OVCAR-5 ovarian, 1260 nM; with IGROV1 ovarian, 419 nM; in the assay on UO-31 renal it was 408 nM; with BT-549 breast it was 355 nM; with OVCAR-4 ovarian, 1080 nM. The GI50 in the assay on EKVX NSCLC was 292 nM; in the assay on RXF 393 renal, 198 nM; with UACC-257 melanoma, 14.6 µM; in the assay with MDA-MB-231 breast, 463 nM. Besides, the TGI in the assay with OVCAR-8 ovarian is more than 50 µM; with OVCAR-5 ovarian, more than 50 µM; in the assay on IGROV1 ovarian, more than 50 µM; in the assay on UO-31 renal, more than 50 µM; in the assay with BT-549 breast it was more than 13.6 µM; with OVCAR-4 ovarian, more than 50 µM. The TGI in the assay on EKVX NSCLC, in the assay on UACC-257 melanoma and in the assay with MDA-MB-231 breast was more than 50 µM throughout.

On to `Nc1ncnc2c1c(C(=O)NO)cn2C1OC(CO)C(O)C1O` (configuration not stated), for which the GI50 in the assay on OVCAR-8 ovarian was 353 nM; in the assay on OVCAR-5 ovarian, 604 nM; in the assay with IGROV1 ovarian it was 279 nM; with UO-31 renal it was 368 nM; in the assay with BT-549 breast, 426 nM; with OVCAR-4 ovarian, 213 nM. The GI50 in the assay with EKVX NSCLC was 776 nM; in the assay with RXF 393 renal, 331 nM; in the assay on UACC-257 melanoma, 0.522 µM; in the assay with MDA-MB-231 breast, 464 nM. Moreover, the TGI was more than 100 µM in the assay with OVCAR-8 ovarian; 3.75 µM in the assay on UO-31 renal; 19.2 µM in the assay on BT-549 breast; 5.61 µM in the assay with OVCAR-4 ovarian; 15.7 µM in the assay on EKVX NSCLC; 3.52 µM in the assay with UACC-257 melanoma. Further, the TGI in the assay with MDA-MB-231 breast was 5.32 µM.
